Measured values from patent US12351878B2, “Identification of HER2 mutations in lung cancer and methods of treatment” (THE TRANSLATIONAL GENOMICS RESEARCH INSTITUTE, priority 2018, dated 2025).
pIC50: −log10 of the molar value. Entries after “also recorded” stand apart in the source; their conditions may differ. Like-named read-outs stand apart in the source and are kept apart here.

Legend:
[1] = test system: HER2 V659E cPAC cell lines; test: 72 hour drug dose-response, CellTiter-Glo cell viability; type: cell-based, canine; settings: for pIC50: Canis lupus familiaris; for sensitivity of HER2 V659E lines relative to HER2 wild-type cell lines: in vitro viability
Source text: (§1) Sample Collection: Tumors and cell lines from 89 dogs from the Canine Comparative Oncology and Genomics Consortium (CCOGC) (11) and The Ohio State University (OSU) College of Veterinary Medicine Biospecimen Repository were included. Board-certified veterinary pathologists confirmed tumor diagnosis based on histopathology. Tumor and normal tissue samples were flash frozen in liquid nitrogen or formalin-fixed and paraffin-embedded (FFPE). Cell lines were maintained in RPMI 1640 with GlutaMAX™ (Gibco™, Thermo Fisher Scientific, #61870036) supplemented with 10% heat-inactivated fetal bovine serum at 37° C. and 5% CO2 and passaged at 90% confluence. Cell lines with known passage data (except BACA) were sequenced within the first eight passages of derivation and subsequently expanded for phenotypic studies, and were authenticated by IDEXX BioResearch (Columbia, MO) using the Cell Check Canine STR Profile and Interspecies Contamination Test or by NkX2 (or TTF-1) RT-PCR. Human cell lines included BT474 (ATCC #HTB20, HER2 focal amplification) and H1781 (ATCC #CRL-5894, HER2 […]). Blood for cell-free DNA (cfDNA) and germline DNA extraction was collected in 10 ml K2 EDTA Blood tubes (Thermo Fisher Scientific #22-253-145). Plasma separation was performed at room temperature within 1 hour (2× serial centrifugation at 2000 rpm×15 minutes). Plasma aliquots were stored frozen at −80° C. DNA extraction from plasma, white blood cells and tissue was performed with MagMAX Cell-Free DNA Isolation Kit (Thermo Fisher Scientific #A29319), DNeasy Blood and Tissue Kit (QIAGEN #69504) and Qiagen AllPrep DNA/RNA Mini Kit (QIAGEN #80204), respectively.
(§2) Cells were cultured in RPMI supplemented with 10% FBS and 1% Penicillin/Streptomycin. Luminescence was read using Synergy Mx (Biotek) plate reader. Six replicates were performed for each dose. Curve-fitting and IC50 calculations were performed using GraphPad Prism v7.00 (GraphPad Software).
(§3) We first assessed differential sensitivity of HER2 V659E and HER2 WT canine lung cancer cell lines to lapatinib (HER2 and EGFR inhibitor) and neratinib (HER2, HER4, and EGFR inhibitor). Five cPAC cell lines (two HER2 V659E and three HER2 WT) were treated with neratinib and four (one HER2 V659E and three HER2 WT) with lapatinib for 72 hours. Two HER2-mutant human cancer cell lines-BT474 (HER2 AMP) and H1781 (kinase domain HER2 G776ins)—were treated as positive drug controls (18, 21) (FIGS. 2B and 6). […] Given that HER2 receptors dimerize with EGFR, we then evaluated differential sensitivity of the five canine cell lines and the human BT474 control line to the EGFR inhibitor, erlotinib.

HER2 WT cPAC cell lines = test: as above; type: cell-based, canine; settings: Canis lupus familiaris
Source text: as §1, §2, §3

p-AKT in BT474 (HER2amp) = test: Western blot of phospho-AKT and AKT under serum starvation; type: cell-based, human; settings: 5 doses 20-2000 nmol/L
Protocol: […]
(§4) Immunoblot Analyses: Subconfluent cells were serum starved overnight, then treated with 20 nM neuregulin for 15 min prior to harvest. […] Membranes were blocked for 1 hour in LiCor blocking buffer and incubated with primary antibody at 4° C., overnight, followed by fluorescence-conjugated secondary antibodies. […]

[2] = test system: HER2-mutant cell lines (HER2 V659E cPAC lines, BT474, H1781); test: 72 hour drug dose-response, CellTiter-Glo cell viability; type: cell-based, canine and human; settings: all HER2-mutant cell lines
Source text: Sample Collection: Tumors and cell lines from 89 dogs from the Canine Comparative Oncology and Genomics Consortium (CCOGC) (11) and The Ohio State University (OSU) College of Veterinary Medicine Biospecimen Repository were included. Board-certified veterinary pathologists confirmed tumor diagnosis based on histopathology. Tumor and normal tissue samples were flash frozen in liquid nitrogen or formalin-fixed and paraffin-embedded (FFPE). Cell lines were maintained in RPMI 1640 with GlutaMAX™ (Gibco™, Thermo Fisher Scientific, #61870036) supplemented with 10% heat-inactivated fetal bovine serum at 37° C. and 5% CO2 and passaged at 90% confluence. […]
Cells were cultured in RPMI supplemented with 10% FBS and 1% Penicillin/Streptomycin. Luminescence was read using Synergy Mx (Biotek) plate reader. […]
We first assessed differential sensitivity of HER2 V659E and HER2 WT canine lung cancer cell lines to lapatinib (HER2 and EGFR inhibitor) and neratinib (HER2, HER4, and EGFR inhibitor). […] Given that HER2 receptors dimerize with EGFR, we then evaluated differential sensitivity of the five canine cell lines and the human BT474 control line to the EGFR inhibitor, erlotinib.

[3] = test system: p-AKT in OSUK9PAPADRi (HER2 V659E); test: Western blot of phospho-AKT and AKT under serum starvation; type: cell-based, canine; settings: 5 doses 20-2000 nmol/L
Protocol: […]
as §4

[4] = test system: p-AKT in OSUK9PAPADO (HER2 WT); test: as above; type: cell-based, canine; settings: 5 doses 20-2000 nmol/L
Protocol: […]
as §4

[5] = 72 h, read-out: IC50, viability

Row | Structure (SMILES) | pIC50 ([1]; 72 h, read-out: IC50, viability, one of the two HER2 V659E lines, 72 hours) | pIC50 ([1]; 72 h, read-out: IC50, viability, other of the two HER2 V659E lines, 72 hours) | sensitivity of HER2-mutant canine cell lines ([1]; two HER2-mutant cell lines) | pIC50 (HER2 WT cPAC cell lines; [5]) | p-AKT level by Western blot (p-AKT in BT474 (HER2amp)) | pIC50 [2] | pIC50 [1, 5] | sensitivity of HER2 V659E lines relative to HER2 wild-type cell lines [1] | pIC50 (HER2 WT cPAC cell lines; 72 h, read-out: IC50, viability, HER2 WT cPAC cell lines, 72 hours, both TKIs) | pIC50 (HER2 WT cPAC cell lines; 72 h, read-out: IC50, viability, HER2WT cells, 72 hours, p=0.0079 vs HER2-mutant) | p-AKT level by Western blot [3] | p-AKT level by Western blot [4] | pIC50 ([1]; HER2 V659E cPAC cell lines, 72 hours, both TKIs, read-out: IC50, viability) | pIC50 (HER2 WT cPAC cell lines; HER2 WT cPAC cell lines, 72 hours, both TKIs, read-out: IC50, viability)
1 | C#Cc1cccc(Nc2ncnc3cc(OCCOC)c(OCCOC)cc23)c1 [erlotinib] | 6.66 | 5.93 | One of two HER2-mutant cell lines showed erlotinib sensitivity | 4.81 to 5.96 | – | – | – | – | – | – | – | – | – | –
2 | CCOc1cc2ncc(C#N)c(Nc3ccc(OCc4ccccn4)c(Cl)c3)c2cc1NC(=O)/C=C/CN(C)C [neratinib] | – | – | – | – | dose-dependent decrease in p-AKT | > 7.30 | > 6.70 | selectively sensitive; also recorded: hypersensitivity | < 5.60 | < 5.57 | dose-dependent decrease in p-AKT | low at all treatment levels | – | –
3 | CS(=O)(=O)CCNCc1ccc(-c2ccc3ncnc(Nc4ccc(OCc5cccc(F)c5)c(Cl)c4)c3c2)o1 [lapatinib] | – | – | – | – | – | – | – | selectively sensitive; also recorded: hypersensitivity | – | – | – | – | > 6.70 | < 5.60
